Assays:
[1] = tested on: astrocytoma cells; design: method as in Kikuchi et al., 2005; Honma et al., 2009; settings: by inhibiting ERK phosphorylation; ref Kikuchi et al., 2005; Honma et al., 2009; cited from earlier work
[2] = tested on: 293T cells; test: Cytotoxicity, CellTiter 96 Aqueous (MTS) cell proliferation assay; assay type: cell-based, human; settings: 24 h incubation
Description: Both compounds were dissolved in dimethyl sulfoxide (DMSO) at a concentration of 50 mM and stored at -20°C. Aliquots of the stock solutions were further diluted with appropriate growth medium to the desired concentrations before use. […] The following day, 10 μl of compounds A and B at concentrations ranging from 0.0001 to 10 mM were added to each well. After incubation for 24 h, 20 μl per well of 3-(4,5-dimethyl-2-yl)-5-(3-carboxymethoxyphenyl)-2-(4-sulfophenyl)-2H-tetrazolium salt/phenazine methosulfate solution was added to each well, followed by incubation for 4 h. The absorbance at 490 nm was recorded with an ELISA plate reader and the IC50 value was determined by identifying the X-axis value corresponding to one-half of the difference between the maximum and minimum absorbance values using GraphPad Prism v.6 software (GraphPad Inc., San Diego, CA, USA).

[3] = tested on: DENV-infected 293T cells; test: Toxicity to DENV-infected 293T cells; assay type: cell-based, human; settings: dose-dependent
Description: (§1) THP-1 and 293T cells were seeded in a Nunc cell culture tube and a 12-well cell culture plate, respectively, at 1.8 × 10^5/well. After overnight incubation, cells were washed and incubated with fresh medium containing DENV-3 at an MOI of 0.1 or incubated without virus for 1.5 h. The inoculum was then removed and cells were washed twice with fresh medium, and compounds A and B were added at final concentrations of 3, 10, and 30 μM. […] On day 3 post-infection, culture supernatants and cell lysates were collected. Cell viability was evaluated by Trypan Blue exclusion and DENV copy number was determined by RT-qPCR. OPN mRNA and protein levels were quantified by RT-qPCR and ELISA, respectively.

[4] = tested on: OPN mRNA in 293T cells; test: OPN mRNA expression by RT-qPCR in uninfected and DENV-3-infected 293T cells; assay type: cell-based, human; settings: uninfected 293T cells, 3-30 μM, 72 h
[5] = tested on: THP-1 cells; test: Cytotoxicity, CellTiter 96 Aqueous (MTS) cell proliferation assay; assay type: cell-based, human; settings: 24 h incubation
Description: (§2) Brefelamide, henceforth referred to as compound A ([Kikuchi et al., 2005]), is an aromatic amide isolated from methanol extracts of Dictyostelium brefeldianum and D. giganteum slime mold fruiting bodies; its derivative, henceforth referred to as compound B ([Kikuchi et al., 2005]; [Zhang et al., 2016b]), contains a methyl ether group (-OCH3). Both compounds were dissolved in dimethyl sulfoxide (DMSO) at a concentration of 50 mM and stored at -20°C. Aliquots of the stock solutions were further diluted with appropriate growth medium to the desired concentrations before use. […] THP-1 and 293T cells were seeded in 96-well tissue culture plates at a density of 1.8 × 10^4/well in 90 μl of the appropriate growth medium and incubated for 24 h at 37°C in a humidified 5% CO2 atmosphere. The following day, 10 μl of compounds A and B at concentrations ranging from 0.0001 to 10 mM were added to each well. […] The absorbance at 490 nm was recorded with an ELISA plate reader and the IC50 value was determined by identifying the X-axis value corresponding to one-half of the difference between the maximum and minimum absorbance values using GraphPad Prism v.6 software (GraphPad Inc., San Diego, CA, USA).

[6] = tested on: Osteopontin (OPN) in THP-1 cells; test: OPN protein level in culture supernatant by ELISA, THP-1 cells; assay type: cell-based, human
Description: (§3) Osteopontin levels in the cell culture supernatant were quantified using an ELISA kit (R&D Systems, Minneapolis, MN, USA) according to the manufacturer’s instructions and as previously reported ([Chagan-Yasutan et al., 2014]). The supernatant was diluted eightfold for THP-1 cells and two–fourfold for 293T cells, and the final value was calculated as [drawing 1] and was expressed as pg/ml/10^6 cells.
(§4) Changes in OPN expression in uninfected THP-1 and 293T cell lines in response to treatment with compounds A and B were assessed. Each well in a 12-well tissue culture plate was seeded with 1.8 × 10^5 cells. After overnight incubation, the compounds were added at final concentrations of 3–100 μM. Cells were harvested 3 days later. OPN mRNA and protein levels were quantified by RT-qPCR and ELISA, respectively, to determine the optimal concentration.
as §1

[7] = tested on: DENV-infected THP-1 cells; test: Toxicity to DENV-infected THP-1 cells; assay type: cell-based, human; settings: dose-dependent
Description: as §1

[8] = tested on: OPN mRNA in THP-1 cells; test: OPN mRNA expression by RT-qPCR in uninfected and DENV-3-infected THP-1 cells; assay type: cell-based, human; settings: 72 h
Description: Glyceraldehyde 3-phosphate dehydrogenase (GAPDH) was used as reference gene for normalization of expression levels and was amplified with the following forward and reverse primers: GAPDH-F, 5′-[…]-3′ and GAPDH-R, 5′-[…]-3′. The Taqman probe was as follows: 5′[FAM]–[…]–[BHQ1]3′. A forward and reverse primer set (SPP1-F, 5′-[…]-3′ and SPP1-R, 5′-[…]-3′) and a probe (SPP1-P, 5′-[FAM]–[…] GAAGT–[BHQ1]3′) (Takara Bio) were used to quantify OPN mRNA ([Qin et al., 2015]). The mean fold change in OPN mRNA level was calculated as fold difference = 2^-ΔΔCt.
as §4
THP-1 and 293T cells were seeded in a Nunc cell culture tube and a 12-well cell culture plate, respectively, at 1.8 × 10^5/well. […] Cell viability was evaluated by Trypan Blue exclusion and DENV copy number was determined by RT-qPCR. OPN mRNA and protein levels were quantified by RT-qPCR and ELISA, respectively.

[9] = tested on: Osteopontin (OPN) in 293T cells; test: OPN protein level in culture supernatant by ELISA, 293T cells; assay type: cell-based, human
Description: as §3, §4
THP-1 and 293T cells were seeded in a Nunc cell culture tube and a 12-well cell culture plate, respectively, at 1.8 × 10^5/well. After overnight incubation, cells were washed and incubated with fresh medium containing DENV-3 at an MOI of 0.1 or incubated without virus for 1.5 h. […] […] On day 3 post-infection, culture supernatants and cell lysates were collected. Cell viability was evaluated by Trypan Blue exclusion and DENV copy number was determined by RT-qPCR. OPN mRNA and protein levels were quantified by RT-qPCR and ELISA, respectively.

[10] = tested on: DENV-3; test: DENV RNA copy number by RT-qPCR in infected THP-1 cells; assay type: cell-based, Dengue virus-3; settings: 72 h
Description: (§5) Viral copy number in culture supernatants and cell lysates was measured by RT-qPCR as previously described ([Chagan-Yasutan et al., 2013]) using the RNA UltraSense One-Step Quantitative RT-PCR System (Invitrogen, Carlsbad, CA, USA) and Thermal Cycler Dice Real Time System (Takara Bio, Otsu, Japan) according to the manufacturers’ protocols. Primers and hydrolysis probes specific to the 3′ untranslated region of each of the four DENV genotypes have been previously published ([Chagan-Yasutan et al., 2013]). The forward and reverse primers were as follows 5′-[…]-3′ and 5′-[…]-3′ ([Warrilow et al., 2002]). The TaqMan probe was labeled at the 5′ and 3′ ends with a 6-carboxyfluorescein (FAM) reporter and Black Hole quencher (BHQ)-1 (i.e., 5′[FAM]–[…]–[BHQ1]3′). The copy numbers obtained by DENV RT-qPCR were linearly associated with plaque numbers (data not shown).
as §1

[11] = Cytotoxicity, CellTiter 96 Aqueous (MTS) cell proliferation assay; assay type: cell-based, human; settings: human, THP-1 cells, 24 h incubation
Description: as §2

[12] = tested on: DENV-3; test: DENV RNA copy number by RT-qPCR in infected 293T cells; assay type: cell-based, Dengue virus-3; settings: 0.3 μM
Description: as §5
THP-1 and 293T cells were seeded in a Nunc cell culture tube and a 12-well cell culture plate, respectively, at 1.8 × 10^5/well. After overnight incubation, cells were washed and incubated with fresh medium containing DENV-3 at an MOI of 0.1 or incubated without virus for 1.5 h. […] Cell viability was evaluated by Trypan Blue exclusion and DENV copy number was determined by RT-qPCR. OPN mRNA and protein levels were quantified by RT-qPCR and ELISA, respectively.

[13] = DENV-infected THP-1 cells, MOI 0.1, 3 days

Nc1c(Oc2ccc(O)cc2)cccc1C(=O)CCNC(=O)c1ccc(O)cc1 [compound A, Brefelamide]
Proliferation of astrocytoma cells [1]: suppressed the proliferation
IC50 [2]: 32.2 µM
Toxic concentration [3]: > 30 µM
OPN mRNA levels [4]: reduced OPN mRNA levels
IC50 [5]: 102 µM
OPN level in supernatant after treatment ([6]; DENV-infected THP-1 cells, 10 μM compound, 3 days, infected control 67848.9): 12247.9 pg/ml/10^6 cells
OPN levels in supernatant [6, 13]: dose-dependent reduction
OPN levels in supernatant ([6]; uninfected THP-1 cells, 3 days): had no effect
Toxic concentration [7]: > 30 µM
OPN mRNA expression ([8]; DENV-infected THP-1 cells, MOI 0.1, 3-30 μM): inhibited OPN mRNA expression in a dose-dependent manner
OPN mRNA expression ([8]; uninfected THP-1 cells, 3-30 μM): had no effect
OPN expression (protein, supernatant) ([9]; DENV-infected 293T cells, MOI 0.1, 3 days): did not inhibit
OPN expression (protein, supernatant) ([9]; uninfected 293T cells, 3 days): did not inhibit
Suppression of DENV RNA levels relative to the control ([10]; THP-1 cell culture supernatant, 10 μM): 75%
Suppression of DENV RNA levels ([10]; THP-1 cell lysates, 10 μM): not lysates

CCC(C)(C)C(=O)O[C@H]1C[C@@H](C)C=C2C=C[C@H](C)[C@H](CC[C@@H]3C[C@@H](O)CC(=O)O3)[C@H]21 [simvastatin, reference compound]
IC50 at 24 h [11]: 14.1 µM
OPN levels in supernatant [6, 13]: had no effect
Viral replication (DENV RNA) ([12]; 293T cell lysates): inhibited viral replication
Viral replication (DENV RNA) ([12]; 293T culture supernatant): inhibited viral replication
OPN production ([9]; DENV-infected 293T cells, 0.3 μM): suppressed OPN production
Virus replication (DENV RNA copy number) ([10]; THP-1 culture supernatant, 0.3-1 μM): had no effect

Reference: publication PMC5370276, “Induction of Osteopontin by Dengue Virus-3 Infection in THP-1 Cells: Inhibition of the Synthesis by Brefelamide and Its Derivative” (Frontiers in Microbiology, 2017)
